Earlier results in patent US20100080846A1, “DIPYRIDAMOLE AND […] ACID FORMULATIONS AND PROCESS FOR PREPARING SAME” (priority 2008, published 2010).

Settings: above a pH of 4

solubility in water: practically insoluble
SMILES: OCCN(CCO)c1nc(N2CCCCC2)c2nc(N(CCO)CCO)nc(N3CCCCC3)c2n1 [Dipyridamole, 2,6-bis-(diethanolamino)-4,8-dipiperidino-(5,4-d)-pyrimidine]
